Counter-ions that a name gives are not always drawn.
Key:
MV-4-11 cells = assay: In vitro cell activity test, MV-4-11 proliferation (CellTiter-Glo); type: cell-based; conditions: Homo sapiens, MV4-11, 72 h, 3 days incubation
Description: IMDM medium, fetal bovine serum, penicillin/streptomycin antibiotics were purchased from Promega (Madison, Wis.). The MV-4-11 cell line was purchased from the Cell Bank of the Chinese Academy of Sciences. Nivo multi-label analyzer (PerkinElmer).
Plant MV-4-11 cells in a white 96-well plate, 80 μL of cell suspension per well, which contains 6000 MV-4-11 cells. The cell plate was cultured overnight in a carbon dioxide incubator.
The compound to be tested was diluted 5-fold to the 8th concentration with a discharge gun, that is, diluted from 2 mM to 26 nM, and replicated. Add 78 μL of culture medium to the middle plate, and then transfer 2 μL of each well of the gradient dilution compound to the middle plate according to the corresponding position, and transfer 20 μL of each well to the cell plate after mixing. The final concentration of the compound is 10 μM to 0.13 nM. The cell plate was placed in a carbon dioxide incubator for 3 days.
Add 25 μL of Promega CellTiter-Glo reagent per well to the cell plate and incubate at room temperature for 10 minutes to stabilize the luminescence signal. Use PerkinElmer Nivo multi-label analyzer to read.

CDK2/CyclinE1 = target: T1, CDK2/CyclinE1 (Homo sapiens, UniProt P24941); assay: In vitro CDK2/CyclinE1 enzyme activity test (ADP-Glo); type: biochemical; conditions: 150 μM ATP, 25° C., 60 minutes
T1 construct: purchased Promega
Description: CDK2/CyclinE1 kinase detection kit was purchased from Promega. Nivo multi-label analyzer (PerkinElmer).
(§1) Using the kinase buffer in the kit to dilute the enzyme, substrate, adenosine triphosphate and inhibitor.
The compound to be tested was diluted 5-fold to the 8th concentration with a discharge gun, that is, diluted from 50 μM to 0.65 nM, with a DMSO concentration of 5%, and replicated. Add 1 μL of each inhibitor concentration gradient, 2 μL CDK2/CyclinE1 enzyme (2 ng), 2 μL mixture of substrate and ATP (150 μM adenosine triphosphate, 0.1 μg/μL substrate) to the microplate, and the final concentration gradient of the compound is 10 μM dilution to 0.13 nM. The reaction system was placed at 25° C. for 60 minutes. After the reaction, add 5 μL of ADP-Glo reagent to each well, and continue the reaction at 25° C. for 40 minutes. After the reaction, add 10 μL of kinase detection reagent to each well. After reacting at 25° C. for 30 minutes, use a multi-label analyzer to read chemiluminescence. The integration time is 0.5 seconds.
Table 1 provides the CDK2/CyclinE1 enzymatic inhibitory activity of the compounds of the present invention.

CDK9/CyclinT1 = target: T2, CDK9/CyclinT1 (Homo sapiens, UniProt P50750); assay: In vitro CDK9/CyclinT1 enzyme activity test (ADP-Glo); type: biochemical; conditions: 100 μM ATP, 25° C., 120 minutes
T2 construct: purchased Carna
T2 sequence (P50750 whole entry): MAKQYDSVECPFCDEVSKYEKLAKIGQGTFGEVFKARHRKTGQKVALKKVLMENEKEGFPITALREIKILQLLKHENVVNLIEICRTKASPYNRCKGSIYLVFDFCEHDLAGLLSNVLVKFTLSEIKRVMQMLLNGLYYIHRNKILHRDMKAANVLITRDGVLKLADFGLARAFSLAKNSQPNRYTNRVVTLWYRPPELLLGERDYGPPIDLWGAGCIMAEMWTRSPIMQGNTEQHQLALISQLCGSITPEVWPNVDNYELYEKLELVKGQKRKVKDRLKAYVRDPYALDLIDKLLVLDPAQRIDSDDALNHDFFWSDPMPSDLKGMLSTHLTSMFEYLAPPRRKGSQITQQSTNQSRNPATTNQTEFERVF
T2 sequence (O60563 whole entry partner): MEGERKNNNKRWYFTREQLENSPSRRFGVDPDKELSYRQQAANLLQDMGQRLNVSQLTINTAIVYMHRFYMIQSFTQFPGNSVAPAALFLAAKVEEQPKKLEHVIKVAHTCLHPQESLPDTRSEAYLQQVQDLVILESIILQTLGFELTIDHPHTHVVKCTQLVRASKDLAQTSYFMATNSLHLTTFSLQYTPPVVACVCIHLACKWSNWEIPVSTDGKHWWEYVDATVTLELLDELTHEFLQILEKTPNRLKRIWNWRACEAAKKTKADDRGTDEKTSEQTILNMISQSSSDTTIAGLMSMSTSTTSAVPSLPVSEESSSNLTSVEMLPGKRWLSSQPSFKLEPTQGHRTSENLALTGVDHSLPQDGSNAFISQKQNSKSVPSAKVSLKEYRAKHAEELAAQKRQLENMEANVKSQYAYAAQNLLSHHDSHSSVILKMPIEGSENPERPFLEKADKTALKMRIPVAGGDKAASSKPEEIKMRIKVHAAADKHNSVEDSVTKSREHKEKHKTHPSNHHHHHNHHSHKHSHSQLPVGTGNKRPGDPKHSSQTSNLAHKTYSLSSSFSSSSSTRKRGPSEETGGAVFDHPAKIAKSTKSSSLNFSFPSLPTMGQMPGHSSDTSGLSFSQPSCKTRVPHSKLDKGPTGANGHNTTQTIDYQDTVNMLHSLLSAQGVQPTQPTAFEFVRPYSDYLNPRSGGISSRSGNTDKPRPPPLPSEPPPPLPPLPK
Description: CDK9/CyclinT1 kinase was purchased from Carna, ADP-Glo detection kit was purchased from Promega, and PKDTide substrate and kinase reaction buffer were purchased from Signalchem. Nivo multi-label analyzer (PerkinElmer).
The kinase buffer in the kit was used to dilute the enzyme, substrate, adenosine triphosphate and inhibitors.
The compound to be tested was diluted by 5 times for 8 concentrations with a discharge gun, ie., dilution from 50 μM to 0.65 nM, with a DMSO concentration of 5%, and replicated. 1 μL of each concentration gradient of the inhibitor, 2 μL CDK9/CyclinT1 enzyme (4 ng), 2 μL of a mixture of substrate and ATP (100 μM adenosine triphosphate, 0.2 μg/μL substrate) was added to the microplate, and the final concentration gradient of the compound was 10 μM dilution to 0.13 nM. The reaction system was placed at 25° C. for 120 minutes. After the reaction, 5 μL of ADP-Glo reagent was added to each well, and the reaction was allowed to continue at 25° C. for 40 minutes. After the reaction, 10 μL of kinase detection reagent was added to each well. After reacting at 25° C. for 30 minutes, a multi-label analyzer was used to read chemiluminescence. The integration time was 0.5 seconds.
Table 1 provides the enzymatic inhibitory activity of the compounds of the present invention on CDK9/CyclinT1.

CDK1/CyclinB1 = target: T3, CDK1/CyclinB1 (Homo sapiens, UniProt P06493); assay: In vitro CDK1/CyclinB1 enzyme activity test (ADP-Glo); type: biochemical; conditions: 25 μM ATP, 25° C., 120 minutes
T3 construct: purchased Promega
T3 sequence (P06493 whole entry): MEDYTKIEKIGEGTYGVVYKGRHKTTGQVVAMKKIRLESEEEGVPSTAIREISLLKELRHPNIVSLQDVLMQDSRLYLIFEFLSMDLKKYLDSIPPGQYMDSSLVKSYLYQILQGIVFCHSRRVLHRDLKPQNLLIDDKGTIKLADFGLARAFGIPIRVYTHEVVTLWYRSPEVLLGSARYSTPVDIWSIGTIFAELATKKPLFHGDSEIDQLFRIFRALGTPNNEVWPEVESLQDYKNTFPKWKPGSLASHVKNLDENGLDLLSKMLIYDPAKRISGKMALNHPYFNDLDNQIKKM
T3 sequence (P14635 whole entry partner): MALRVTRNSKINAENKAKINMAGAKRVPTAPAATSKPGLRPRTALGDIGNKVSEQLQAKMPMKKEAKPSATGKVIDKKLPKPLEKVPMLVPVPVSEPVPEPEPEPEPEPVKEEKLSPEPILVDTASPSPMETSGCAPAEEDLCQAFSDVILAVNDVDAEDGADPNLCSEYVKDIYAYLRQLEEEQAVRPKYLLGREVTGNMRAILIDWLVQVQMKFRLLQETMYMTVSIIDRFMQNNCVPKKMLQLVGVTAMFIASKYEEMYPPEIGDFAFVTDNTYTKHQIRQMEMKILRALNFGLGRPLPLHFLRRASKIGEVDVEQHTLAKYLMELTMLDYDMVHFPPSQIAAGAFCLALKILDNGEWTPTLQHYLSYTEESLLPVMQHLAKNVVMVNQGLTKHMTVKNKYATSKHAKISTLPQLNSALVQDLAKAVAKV
Description: CDK1/CyclinB1 kinase detection kit was purchased from Promega. Nivo multi-label analyzer (PerkinElmer).
as §1
The compound to be tested was diluted 5-fold to the 8th concentration with a discharge gun, that is, diluted from 50 μM to 0.65 nM, with a DMSO concentration of 5%, and replicated. Add 1 μL of each inhibitor concentration gradient, 2 μL CDK1/CyclinB1 enzyme (12.5 ng), 2 μL mixture of substrate and ATP (25 μM adenosine triphosphate, 0.2 μg/μL substrate) into the microplate, and the final concentration gradient of the compound is 10 μM dilute to 0.13 nM. The reaction system was placed at 25° C. for 120 minutes. After the reaction, add 5 μL of ADP-Glo reagent to each well, and continue the reaction at 25° C. for 40 minutes. After the reaction, add 10 μL of kinase detection reagent to each well. After reacting at 25° C. for 30 minutes, use a multi-label analyzer to read chemiluminescence. The integration time is 0.5 seconds.
Table 1 provides the CDK1/CyclinB1 enzymatic inhibitory activity of the compounds of the present invention.

[1] = background; cited from earlier work
[2] = system: MV4-11 acute myeloid leukemia xenograft (CDX); assay: In vivo drug efficacy study (1), MV4-11 CDX model; conditions: 15 mg/kg injected weekly; for Tumor Volume Day 0: Day 0 (start of administration)
Description: In vivo drug efficacy experiments were performed on human-derived tumor cell line-based xenograft (CDX) BALB/c nude mice derived from patients with MV4-11 acute myeloid leukemia subcutaneously implanted.
(§2) Female 6- to 8-week old BALB/c nude mice which weighed about 18-22 g were kept in separate ventilated cages (3 mice per cage) in a special pathogen-free environment. All the cages, matts and water were disinfected before use. All the animals had free access to standard certified commercial laboratory diet. A total of 30 mice were purchased from Shanghai Lingchang biological science and technology Co., LTD. for study. Each mouse was subcutaneously implanted with tumor cells in the right next abdomen (10×10^6 in 0.2 mL of phosphate buffer) for tumor growth. The administration started when the average tumor volume reached approximately 110 cubic millimeters. The test compound was injected weekly at a dose of 15 mg/kg. The tumor volumes were measured with a two-dimensional caliper twice a week, and the volumes were expressed in cubic millimeters and calculated by the formula: V=0.5a×b^2, where a and b were the major diameter and the minor diameter of the tumor, respectively. Antitumor efficacy was determined by dividing an average increase of the tumor volumes of the animals treated with the compounds by an average increase of the tumor volumes of the untreated animals.

[3] = clinical research, background; cited from earlier work
[4] = system: MV4-1 acute myeloid leukemia xenograft (CDX); assay: In vivo drug efficacy study (2), MV4-11 CDX model; conditions: 10 mg/kg injected weekly; for Tumor Volume Day 0: Day 0 (start of administration)
Description: In vivo drug efficacy experiments were performed on human-derived tumor cell line-based xenograft (CDX) BALB/c nude mice derived from patients with MV4-1 acute myeloid leukemia subcutaneously implanted.
as §2, with “36” for “30”, “121” for “110”, “10” for “15”

Structure (SMILES) | IC50 (MV-4-11 cells) | IC50 (CDK2/CyclinE1) | IC50 (CDK9/CyclinT1) | IC50 (CDK1/CyclinB1) | also measured
CC(C)N1CCC(c2cc3c(-c4cnn(CC5CC5)c4)c(Cl)cnc3[nH]2)CC1 [4 (hydrochloride)] | 0.0948 µM | 0.334 µM | 0.0103 µM | 0.756 µM | 
COCCN1CCC(c2cc3c(-c4cnn(CC5CC5)c4)c(Cl)cnc3[nH]2)CC1 [5 (hydrochloride)] | 0.0638 µM | 0.235 µM | 0.0106 µM | 1.55 µM | 
CC(=O)N[C@@H]1CCC[C@H](C(=O)Nc2cc(-c3cnn4c3CC(C)(C)C4)c(Cl)cn2)C1 [AZD4573] |  | 0.001 µM |  | 0.002 µM | metabolism (in words) [1]: not good; Animals' Drug Tolerance [2]: Well; Tumor Volume Day 0 [2]: 110 mm^3; Tumor Volume Day 7 [2]: 173 mm^3; Tumor Volume Day 17 [2]: 262 mm^3; Tumor Volume Day 28 [2]: 975 mm^3
COc1cc(F)ccc1-c1cc(Nc2cc(CS(C)(=N)=O)ccn2)ncc1F (stereo not shown) [BAY1251152] | 0.0282 µM | 0.193 µM |  | 0.3 µM | Animals' Drug Tolerance [2]: 5/6 mouse; Tumor Volume Day 0 [2]: 110 mm^3; Tumor Volume Day 7 [2]: 107 mm^3; Tumor Volume Day 17 [2]: 83 mm^3; Tumor Volume Day 28 [2]: 426 mm^3; clinically most important grade 3/4 and dose-limiting adverse side effect [3]: neutropenia
Clc1cnc2[nH]c(C3CCNCC3)cc2c1-c1cnn(CC2CC2)c1 [Compound 1 (hydrochloride)] | 0.0147 µM | 0.112 µM | 0.0077 µM | 0.0887 µM | Animals' Drug Tolerance [2]: Well; Tumor Volume Day 0 [2]: 110 mm^3; Tumor Volume Day 7 [2]: 109 mm^3; Tumor Volume Day 17 [2]: 42 mm^3; Tumor Volume Day 28 [2]: 107 mm^3; Animals' Drug Tolerance [4]: Well; Tumor Volume Day 0 [4]: 121 mm^3; Tumor Volume Day 7 [4]: 121 mm^3; Tumor Volume Day 17 [4]: 151 mm^3; Tumor Volume Day 28 [4]: 419 mm^3
CN1CCC(c2cc3c(-c4cnn(CC5CC5)c4)c(Cl)cnc3[nH]2)CC1 [Compound 2 (formate)] | 0.0357 µM | 0.0794 µM | 0.0071 µM | 0.255 µM | 
c1cc(-c2cnn(CC3CC3)c2)c2cc(C3CCNCC3)[nH]c2n1 [Compound 3 (formate)] | 0.252 µM | 0.933 µM | 0.018 µM | 0.879 µM | 
CCN1CCC(c2cc3c(-c4cnn(CC5CC5)c4)c(Cl)cnc3[nH]2)CC1 [Compound 3 (hydrochloride)] | 0.0074 µM | 0.105 µM | 0.0141 µM | 0.416 µM | 
COCC(C)N1CCC(c2cc3c(-c4cnn(CC5CC5)c4)c(Cl)cnc3[nH]2)CC1 (stereo not shown) [Compound 6 (formate)] | 0.052 µM | 0.394 µM | 0.0096 µM | 1.03 µM | 
Clc1cnc2[nH]c(C3CCNCC3)c(Cl)c2c1-c1cnn(CC2CC2)c1 [Compound 7] | 0.0866 µM | 0.113 µM | 0.0052 µM | 0.366 µM | 
Clc1cnc2[nH]c(C3CCNCC3)cc2c1-c1cnn(CC2CCCC2)c1 [Compound 8 (formate)] | 0.0546 µM | 0.075 µM | 0.0071 µM | 0.178 µM | 
Clc1cnc2[nH]c(C3CCNCC3)cc2c1-c1cnn(Cc2ccccc2)c1 [Compound 9 (formate)] | 0.0673 µM | 0.105 µM | 0.0063 µM | 0.133 µM | 
Clc1ccccc1Cn1cc(-c2c(Cl)cnc3[nH]c(C4CCNCC4)cc23)cn1 [Compound 10 (formate)] | 0.0791 µM | 0.549 µM | 0.0069 µM | 0.0879 µM | 
Clc1cccc(Cn2cc(-c3c(Cl)cnc4[nH]c(C5CCNCC5)cc34)cn2)c1 [Compound 11 (formate)] | 0.0648 µM | 0.214 µM | 0.0064 µM | 0.12 µM | 
Clc1ccc(Cn2cc(-c3c(Cl)cnc4[nH]c(C5CCNCC5)cc34)cn2)cc1 [Compound 12] | 0.286 µM | 0.549 µM | 0.0077 µM | 0.26 µM | 
Clc1cnc2[nH]c(C3CCNCC3)nc2c1-c1cnn(CC2CC2)c1 [Compound 14] | 0.464 µM | 1.36 µM | 0.0384 µM |  | 
Cn1cc(-c2c(Cl)cnc3[nH]c(C4CCNCC4)cc23)cn1 [Compound 15 (hydrochloride)] | 0.0345 µM | 0.685 µM | 0.0043 µM | 0.824 µM | Animals' Drug Tolerance [4]: Well; Tumor Volume Day 0 [4]: 121 mm^3; Tumor Volume Day 7 [4]: 87 mm^3; Tumor Volume Day 17 [4]: 74 mm^3; Tumor Volume Day 28 [4]: 332 mm^3
